# Laboratory results as given in PubChem BioAssay (NCI).
#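 Tested at 5 concentrations; 48 h exposure; 96-well plates; endpoints linearly interpolated, else capped at highest concentration. The concentration for 50% growth inhibition is given as GI50. TGI is the concentration that stops growth completely.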
# What was measured:
# Assay in all cases: inhibition of tumour cell growth, NCI panel, 48 h
# CCRF-CEM leukemia = tested on: CCRF-CEM leukemia
# HCC-2998 colon = tested on: HCC-2998 colon
# HS 578T breast = tested on: HS 578T breast
# IGROV1 ovarian = tested on: IGROV1 ovarian
# NCI-H23 lung = tested on: NCI-H23 lung
# NCI-H460 lung = tested on: NCI-H460 lung
# OVCAR-3 ovarian = tested on: OVCAR-3 ovarian
# SF-295 CNS = tested on: SF-295 CNS
# UACC-62 melanoma = tested on: UACC-62 melanoma
# MOLT-4 leukemia = tested on: MOLT-4 leukemia
Compound,GI50 (CCRF-CEM leukemia),TGI (CCRF-CEM leukemia),GI50 (HCC-2998 colon),TGI (HCC-2998 colon),GI50 (HS 578T breast),TGI (HS 578T breast),GI50 (IGROV1 ovarian),TGI (IGROV1 ovarian),GI50 (NCI-H23 lung),TGI (NCI-H23 lung),GI50 (NCI-H460 lung),TGI (NCI-H460 lung),GI50 (OVCAR-3 ovarian),TGI (OVCAR-3 ovarian),GI50 (SF-295 CNS),TGI (SF-295 CNS),GI50 (UACC-62 melanoma),TGI (UACC-62 melanoma),TGI (MOLT-4 leukemia),GI50 (MOLT-4 leukemia)
CN(C)c1ccc2cc(-c3ccccc3F)c(N)nc2c1,2.04 µM,43.7 µM,3.18 µM,17.6 µM,2.83 µM,18.5 µM,2.81 µM,24.4 µM,2.89 µM,15.7 µM,2.02 µM,13.2 µM,0.922 µM,7.62 µM,1.04 µM,12.4 µM,0.89 µM,12 µM,,
CN=S(=O)(c1ccccc1)c1ccccc1,,> 100 µM,,> 100 µM,,,,> 100 µM,,> 100 µM,,> 100 µM,,> 100 µM,,> 100 µM,,> 100 µM,> 100 µM,
CCC12CCCC(=O)N1C(CO)C(c1ccccc1)O2 (stereo not given),,> 100 µM,,,,,,> 100 µM,,> 100 µM,,> 100 µM,,> 100 µM,,> 100 µM,,> 100 µM,,
CO/N=C(\C)c1ccc(Nc2cc(-c3ccccc3)nc3c(O)cccc23)cc1,6.64 µM,22.6 µM,22.1 µM,37.1 µM,18.2 µM,46.1 µM,13.5 µM,45.2 µM,14.9 µM,30.6 µM,,,16.4 µM,32.4 µM,12.7 µM,27.9 µM,14.6 µM,28.8 µM,,
CC(=O)Oc1ccc(O)c(O)c1C/C=C(\C)CC/C=C(\C)CC/C=C(\C)CCC=C(C)C,,,,2.26 µM,,,,,,1.47 µM,,1.31 µM,,,,4.27 µM,,,,
Cc1ccc(NC(=O)/C(=N\Nc2ccc([N+](=O)[O-])cc2[N+](=O)[O-])C2C(=O)NC(=O)NC2=O)cc1,,> 100 µM,,,,,,> 100 µM,,> 100 µM,,> 100 µM,,> 100 µM,,> 100 µM,,97.6 µM,,
CC(=O)NC1=C(C)C(=O)c2c(nc3n2CCC3O)C1=N (stereo not given),,> 100 µM,,45.7 µM,,,,39.3 µM,,29.7 µM,,51.3 µM,,11.1 µM,,38 µM,,15.5 µM,> 100 µM,
CC(=O)Nc1ccc2c(c1)oc(=O)c1cc(NC(C)=O)ccc12,,,52.4 µM,> 100 µM,63.4 µM,> 100 µM,83.4 µM,> 100 µM,> 100 µM,> 100 µM,> 100 µM,> 100 µM,> 100 µM,> 100 µM,> 100 µM,> 100 µM,63.4 µM,> 100 µM,> 100 µM,18.9 µM
CC1=C(O)C(=O)C2C(=O)C1C(C)C2c1ccc(Cl)cc1 (stereo not given),,> 100 µM,,> 100 µM,,,,> 100 µM,,> 100 µM,,,,> 100 µM,,> 100 µM,,> 100 µM,> 100 µM,
CCCCCCCCCCCCCCCC(=O)OCC1OC(n2c(O)c(N=NC(N)=S)c3ccc([N+](=O)[O-])cc32)C(OC(C)=O)C1OC(C)=O (stereo not given),,> 100 µM,,> 100 µM,,,,> 100 µM,,> 100 µM,,> 100 µM,,> 100 µM,,> 100 µM,,> 100 µM,> 100 µM,
